Experiments:
Assay type in all cases: in vivo, rat
[1] = test system: F344 kidney allograft in LEW recipient rats; assay: Recipient kidney function, treatment with brief tacrolimus (Example 4); settings: brief dose of tacrolimus 1 mg/kg day 0-9 alone; allograft control week 7
Procedure: (§1) The rats and kidney transplantation methods described in Example 1 were used. Tacrolimus at dose of 1 mg/kg from day 0 to day 9 after transplantation, and the compound (I) at doses of 10 mg/kg and 15 mg/kg from day 28 today 60 after transplantation were administered orally to recipient rats. In this study LEW recipients were briefly treated with oral tacrolimus at 1 mg/kg/day for 10 days after transplantation to avoid acute rejection and slow chronic rejection that gradually destroys the F344 kidney graft, resulting in functional and histological changes similar to the chronic rejection in human. The isograft, untreated allograft and allograft treated with tacrolimus 1 mg/kg for 10 days alone served as control groups. Blood and urine samples were collected once a week from recipients with kidney grafts described in Example 1 for measuring their plasma creatinine and proteinuria. Plasma creatinine was tested by Sigma Creatinine Kit and proteinuria by Bio-Rad Protein assay.

[2] = test system: F344 kidney allograft in LEW recipient rats; assay: Kidney allograft survival, combination with tacrolimus (Example 2); settings: Tacrolimus 1 mg/kg PO, 0-90 day, alone
Procedure: The rats and kidney transplantation methods described in Example 1 were used. The compound (I) at dose of 3 mg/kg and tacrolimus at dose of 1 mg/kg, were administered orally to recipient rats daily for 90 days after transplantation. The isograft, untreated allograft, and allograft treated with tacrolimus 1 mg/kg for 90 days alone served as control groups.

[3] = test system: F344 kidney allograft in LEW recipient rats; assay: Kidney allograft survival, treatment with brief tacrolimus (Example 4); settings: Tacrolimus 1 mg/kg PO, 0-9 day, alone
Procedure: as §1

C=CC[C@@H]1/C=C(\C)C[C@H](C)C[C@H](OC)[C@H]2O[C@@](O)(C(=O)C(=O)N3CCCC[C@H]3C(=O)O[C@H](/C(C)=C/[C@@H]3CC[C@@H](O)[C@H](OC)C3)[C@H](C)[C@@H](O)CC1=O)[C@H](C)C[C@@H]2OC [Tacrolimus, tacrolimus]
week post transplantation after which plasma creatinine increased rapidly [1]: 8 week
Survival day ([2]; n=4): >90 days
Survival rate (90 days) ([2]; untreated allograft 40%): 100%
Survival day ([3]; n=5): >90 days
Survival rate ([3]; untreated allograft 40%): 100%
